Test results as given in ChEMBL document CHEMBL1201862, “PubChem BioAssay data set” (2004).
Calls of active or inactive are those of the source.

Experiments:
Estrogen receptor beta [1] = target: T1, Estrogen receptor beta (Homo sapiens, UniProt Q92731); experiment: blockers of SRC-3 recruitment to ERβ – biochemical, ELISA, streptavidin-HRP readout, orthogonal assay, confirmation (AID 1060)
Estrogen receptor = target: T2, Estrogen receptor (Homo sapiens, UniProt P03372);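 further: potency for inhibiting coactivator peptide recruitment to the receptor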
T2 sequence (P03372 whole entry): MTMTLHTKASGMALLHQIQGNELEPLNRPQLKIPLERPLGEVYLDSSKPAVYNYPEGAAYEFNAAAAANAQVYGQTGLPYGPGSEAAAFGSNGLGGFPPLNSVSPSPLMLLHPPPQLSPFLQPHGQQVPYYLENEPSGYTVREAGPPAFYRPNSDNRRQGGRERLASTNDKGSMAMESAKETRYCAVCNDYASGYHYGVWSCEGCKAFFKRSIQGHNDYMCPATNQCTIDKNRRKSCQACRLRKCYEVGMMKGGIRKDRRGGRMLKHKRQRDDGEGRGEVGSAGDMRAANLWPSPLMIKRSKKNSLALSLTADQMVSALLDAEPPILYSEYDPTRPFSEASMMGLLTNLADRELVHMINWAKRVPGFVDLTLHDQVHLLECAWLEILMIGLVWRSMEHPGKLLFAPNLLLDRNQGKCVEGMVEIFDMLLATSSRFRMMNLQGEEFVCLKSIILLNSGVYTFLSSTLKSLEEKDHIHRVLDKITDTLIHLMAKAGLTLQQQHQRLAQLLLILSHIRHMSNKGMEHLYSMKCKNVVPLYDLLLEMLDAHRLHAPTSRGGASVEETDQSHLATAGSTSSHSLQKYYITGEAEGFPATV

Estrogen receptor beta [2] = target: T1, Estrogen receptor beta
[3] = target: T3, Carboxy-terminal domain RNA polymerase II polypeptide A small phosphatase 1 (Homo sapiens, UniProt Q9GZU7); experiment: CTDSP1 inhibitors, concentration-response, biochemical, absorbance readout, ultra-high-throughput screen actives (AID 540297); format: functional
T3 sequence (Q9GZU7 whole entry): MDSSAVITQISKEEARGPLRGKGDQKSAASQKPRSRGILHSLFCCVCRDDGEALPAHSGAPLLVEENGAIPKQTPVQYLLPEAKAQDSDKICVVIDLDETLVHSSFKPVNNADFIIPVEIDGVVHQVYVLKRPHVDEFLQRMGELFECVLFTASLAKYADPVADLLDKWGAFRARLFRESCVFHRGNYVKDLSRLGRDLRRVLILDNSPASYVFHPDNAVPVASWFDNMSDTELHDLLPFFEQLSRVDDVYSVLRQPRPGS

Bcl-2-like protein 10 = Bcl-2-like protein 10 (Homo sapiens, UniProt Q9HD36); experiment: Bcl-B/TR3 peptide binding disruption – biochemical, fluorescence polarization, FITC-TR3 peptide, selectivity assay for Bfl-1 inhibitor project, primary screen (AID 748);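 further: fluorescence polarization from a fluorescein-labelled TR3 peptide binding purified Bcl-B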
Sequence of Bcl-2-like protein 10 (Q9HD36 whole entry): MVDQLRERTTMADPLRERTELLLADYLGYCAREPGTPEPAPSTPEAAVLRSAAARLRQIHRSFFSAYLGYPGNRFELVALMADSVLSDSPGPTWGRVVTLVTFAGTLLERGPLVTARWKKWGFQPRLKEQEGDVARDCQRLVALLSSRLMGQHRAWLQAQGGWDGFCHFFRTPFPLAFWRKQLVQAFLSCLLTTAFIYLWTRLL

NS3 = NS3 (Hepatitis C virus, UniProt A3EZJ3); experiment: PubChem AID 2173; set-up: species or system Hepacivirus hominis
Sequence of NS3 (A3EZJ3 whole entry): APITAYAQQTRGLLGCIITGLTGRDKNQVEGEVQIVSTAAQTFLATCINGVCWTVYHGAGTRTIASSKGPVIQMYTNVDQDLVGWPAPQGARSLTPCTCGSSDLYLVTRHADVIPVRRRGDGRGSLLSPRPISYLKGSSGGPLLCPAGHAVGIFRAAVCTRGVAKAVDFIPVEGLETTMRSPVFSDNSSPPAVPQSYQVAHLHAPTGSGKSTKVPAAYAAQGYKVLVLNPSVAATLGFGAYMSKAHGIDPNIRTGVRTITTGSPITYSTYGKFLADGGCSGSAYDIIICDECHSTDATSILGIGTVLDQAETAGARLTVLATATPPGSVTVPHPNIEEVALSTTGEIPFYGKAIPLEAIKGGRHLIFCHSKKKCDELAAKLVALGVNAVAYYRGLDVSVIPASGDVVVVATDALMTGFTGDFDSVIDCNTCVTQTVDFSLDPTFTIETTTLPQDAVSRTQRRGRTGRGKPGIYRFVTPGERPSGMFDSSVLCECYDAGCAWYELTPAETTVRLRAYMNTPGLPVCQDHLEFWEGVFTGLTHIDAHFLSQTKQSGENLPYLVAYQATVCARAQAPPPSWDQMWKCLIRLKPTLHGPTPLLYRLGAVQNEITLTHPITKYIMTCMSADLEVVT

[4] = target: Transitional endoplasmic reticulum ATPase (Homo sapiens, UniProt P55072); experiment: p97 ATPase inhibitors, dose response, biochemical (AID 1534)
Sequence of Transitional endoplasmic reticulum ATPase (Homo sapiens, UniProt P55072) (P55072 whole entry): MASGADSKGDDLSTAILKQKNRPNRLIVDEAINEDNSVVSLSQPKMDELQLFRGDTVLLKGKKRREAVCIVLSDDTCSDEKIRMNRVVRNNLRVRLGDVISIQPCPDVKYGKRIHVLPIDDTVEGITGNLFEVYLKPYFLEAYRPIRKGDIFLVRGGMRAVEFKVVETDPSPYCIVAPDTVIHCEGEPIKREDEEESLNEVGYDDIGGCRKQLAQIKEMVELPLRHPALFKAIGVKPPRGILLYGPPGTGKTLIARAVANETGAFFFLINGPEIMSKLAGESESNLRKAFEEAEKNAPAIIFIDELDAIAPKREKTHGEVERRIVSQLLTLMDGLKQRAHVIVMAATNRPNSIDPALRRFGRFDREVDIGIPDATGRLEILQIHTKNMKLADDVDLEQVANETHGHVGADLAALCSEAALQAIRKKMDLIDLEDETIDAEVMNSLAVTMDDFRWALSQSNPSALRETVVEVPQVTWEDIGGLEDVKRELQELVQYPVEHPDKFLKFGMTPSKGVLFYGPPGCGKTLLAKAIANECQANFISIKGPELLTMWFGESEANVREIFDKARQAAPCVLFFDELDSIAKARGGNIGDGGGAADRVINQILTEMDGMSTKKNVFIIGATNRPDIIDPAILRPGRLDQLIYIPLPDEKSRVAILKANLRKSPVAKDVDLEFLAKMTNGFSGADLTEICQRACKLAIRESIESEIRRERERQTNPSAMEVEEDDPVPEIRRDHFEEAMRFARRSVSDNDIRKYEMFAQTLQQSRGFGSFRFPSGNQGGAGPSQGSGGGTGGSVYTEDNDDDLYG

[5] = target: Transitional endoplasmic reticulum ATPase (Homo sapiens, UniProt P55072, C522A); experiment: C522A mutant p97 ATPase inhibitors, dose response, counter-screen for p97 inhibitor project, biochemical, luminescence (AID 1544)
Beta-galactosidase = Beta-galactosidase (Escherichia coli, UniProt Q8VNN2); experiment: detection-enzyme interference by beta-gal modulators – biochemical, E. coli enzyme, set 3, artefact control for CCR6 antagonist project, dose response (AID 504712); format: functional
[6] = microbe, parasite or virus in culture; format: functional; details: Mycobacterium tuberculosis
[7] = target: C-C chemokine receptor type 6 (Homo sapiens, UniProt P51684); experiment: antagonism of CCR6 beta-arrestin recruitment – cell-based, luminescent beta-arrestin readout, dose response (AID 504728); format: functional
Sequence of C-C chemokine receptor type 6 (P51684 whole entry): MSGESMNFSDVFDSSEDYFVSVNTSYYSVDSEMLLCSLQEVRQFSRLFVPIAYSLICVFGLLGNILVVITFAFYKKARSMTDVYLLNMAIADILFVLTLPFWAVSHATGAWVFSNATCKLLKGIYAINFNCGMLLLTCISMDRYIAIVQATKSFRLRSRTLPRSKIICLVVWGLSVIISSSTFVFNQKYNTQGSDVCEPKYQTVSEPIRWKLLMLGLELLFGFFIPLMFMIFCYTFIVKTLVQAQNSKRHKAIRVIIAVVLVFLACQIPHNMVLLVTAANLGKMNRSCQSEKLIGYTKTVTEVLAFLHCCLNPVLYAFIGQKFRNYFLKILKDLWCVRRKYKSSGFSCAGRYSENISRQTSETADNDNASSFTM

[8] = target: T4, Heat shock factor protein 1 (Mus musculus, UniProt P38532); experiment: enhancement of HSF1-driven luciferase signal – cell-based, NIH3T3, luminescence, dose retest, confirmation (AID 435004); format: functional;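 further: stress induced by proteasome inhibitor MG132 added 30 min after compound; luciferase reporter driven by HSF1 response element in NIH3T3 cells; actives raise luminescence as potentiators of the MG132 stress response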
T4 sequence (P38532 whole entry): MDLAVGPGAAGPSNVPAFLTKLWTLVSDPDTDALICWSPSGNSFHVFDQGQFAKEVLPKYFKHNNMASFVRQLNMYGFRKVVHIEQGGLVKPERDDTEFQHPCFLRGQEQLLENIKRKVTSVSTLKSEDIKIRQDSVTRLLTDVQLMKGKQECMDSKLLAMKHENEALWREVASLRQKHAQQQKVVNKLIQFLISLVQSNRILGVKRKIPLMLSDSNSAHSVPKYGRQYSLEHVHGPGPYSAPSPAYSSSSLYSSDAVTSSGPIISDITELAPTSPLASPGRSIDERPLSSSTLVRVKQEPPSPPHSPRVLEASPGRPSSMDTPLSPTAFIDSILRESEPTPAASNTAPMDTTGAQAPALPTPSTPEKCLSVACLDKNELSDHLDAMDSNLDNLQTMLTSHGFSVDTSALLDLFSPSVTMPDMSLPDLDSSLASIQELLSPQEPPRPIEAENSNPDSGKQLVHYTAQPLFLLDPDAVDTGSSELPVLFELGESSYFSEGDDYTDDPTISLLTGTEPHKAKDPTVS

[9] = target: T5, Mannose-6-phosphate isomerase (Homo sapiens, UniProt P34949); experiment: MPI enzyme activity inhibition – biochemical, fluorescence intensity, coupled assay, primary screen (AID 1209)
T5 sequence (P34949 whole entry): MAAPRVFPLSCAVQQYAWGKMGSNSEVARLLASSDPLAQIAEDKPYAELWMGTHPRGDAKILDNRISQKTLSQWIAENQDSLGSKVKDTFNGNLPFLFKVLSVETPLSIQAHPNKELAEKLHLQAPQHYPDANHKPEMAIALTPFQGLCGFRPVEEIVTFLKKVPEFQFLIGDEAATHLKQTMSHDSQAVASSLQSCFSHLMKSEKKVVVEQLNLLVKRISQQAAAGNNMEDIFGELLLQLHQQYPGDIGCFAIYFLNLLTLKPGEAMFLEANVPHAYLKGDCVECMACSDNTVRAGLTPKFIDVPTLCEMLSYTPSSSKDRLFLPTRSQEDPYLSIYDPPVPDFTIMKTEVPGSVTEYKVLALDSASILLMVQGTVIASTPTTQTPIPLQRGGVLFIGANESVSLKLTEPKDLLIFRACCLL

Galanin receptor type 2 = Galanin receptor type 2 (Homo sapiens, UniProt O43603); experiment: Dose Response cell-based high-throughput screening assay to identify antagonists of galanin receptor 2 (GALR2). [Related pubchem assays: 828, 866 ]; format: functional
[10] = target: T5, Mannose-6-phosphate isomerase; experiment: MPI inhibition at elevated mannose 6-phosphate – biochemical, fluorescence intensity, high mannose 6-phosphate, primary screen (AID 1220)
[11] = target: Lysosomal acid glucosylceramidase (Homo sapiens, UniProt P04062); experiment: Dose response cell-based high throughput screening assay to identify enhancers of beta-glucosidase activity. [Related pubchem assays: 784 ]; format: functional
Sequence of Lysosomal acid glucosylceramidase (P04062 whole entry): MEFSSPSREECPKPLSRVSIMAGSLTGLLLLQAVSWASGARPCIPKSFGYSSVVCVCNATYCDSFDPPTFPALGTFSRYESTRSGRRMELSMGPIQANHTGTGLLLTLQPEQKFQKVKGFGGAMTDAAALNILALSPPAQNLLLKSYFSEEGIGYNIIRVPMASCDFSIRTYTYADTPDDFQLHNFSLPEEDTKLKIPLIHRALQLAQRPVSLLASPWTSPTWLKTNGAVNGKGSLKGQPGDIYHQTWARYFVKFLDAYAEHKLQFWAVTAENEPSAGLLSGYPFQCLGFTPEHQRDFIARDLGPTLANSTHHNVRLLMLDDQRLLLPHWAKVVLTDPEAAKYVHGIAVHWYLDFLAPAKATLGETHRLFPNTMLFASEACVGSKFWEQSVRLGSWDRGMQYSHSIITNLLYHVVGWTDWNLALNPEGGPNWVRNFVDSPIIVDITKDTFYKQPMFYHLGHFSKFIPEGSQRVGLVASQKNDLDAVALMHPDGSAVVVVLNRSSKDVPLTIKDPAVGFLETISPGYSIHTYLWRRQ

[12] = target: Peroxisome proliferator-activated receptor gamma/Nuclear receptor corepressor 2 (Homo sapiens, UniProt P37231+Q9Y618); format: functional
[13] = target: Photoreceptor-specific nuclear receptor (Homo sapiens, UniProt Q9Y5X4); format: functional;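 further: potency for compounds that break the NR2E3 corepressor complex and count as activators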
[14] = Cytotoxicity screening for potential Inhibitors of Bacterial Capsule Biogenesis. [Related pubchem assays (depositor defined):AID488970]; format: functional
[15] = HEK-293T viability loss, compound-treated – cell-based, uHTS hits, cytotoxicity control for B/T-cell NF-kB inhibitor project, dose response (AID 489019); format: functional;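 further: IC50 reflects cytotoxicity as loss of cell viability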
Jurkat = experiment: blockers of NF-kB activation in T cells – Jurkat, luciferase reporter, luminescence, B- and T-cell, dose response (AID 489004); format: functional, cell-based; details: Homo sapiens;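 further: NF-kB luciferase reporter Jurkat cells stimulated with PMA plus ionomycin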
HT-1080 = experiment: HT1080 cell viability loss – fluorescence readout (AID 620); format: functional, cell-based; details: Homo sapiens
HEK293 [16] = experiment: PMA/Ionomycin induced NF-kB luciferase assay in 293- NF-kB-Luc stable cells. [Related pubchem assays: 1299, 1270, 1295, 1375, 1287, 1281, 1293, 1291, 1289, 1280, 465, 1364, 1282, 1372, 1365, 1370, 1367, 1366, 1269, 1373, 1292, 1290, 1302, 1371, 1283, 1271, 1294, 1374, 1368, 1369 ]; format: functional, cell-based; details: Homo sapiens
HEK293 [17] = experiment: Cytotoxicity assay in HEK293 cells. [Related pubchem assays (depositor defined):AID1266, AID1269, AID1270, AID1271, AID1280, AID1281, AID1282, AID1283, AID1287, AID1289, AID1290, AID1291, AID1292, AID1293, AID1294, AID1295, AID1299, AID1302, AID1364, AID1365, AID1366, AID1367, AID1369, AID1370, AID1371, AID1372, AID1373, AID1374, AID1375, AID1384 …; format: functional, cell-based; details: Homo sapiens
[18] = target: T6, Luciferin 4-monooxygenase (Photinus pyralis, UniProt P08659); experiment: In vitro luciferase assay using purified luciferase. [Related pubchem assays: 1299, 1270, 1295, 1375, 1287, 1281, 1293, 1291, 1289, 1280, 465, 1364, 1282, 1372, 1365, 1370, 1367, 1366, 1266, 1373, 1292, 1290, 1302, 1371, 1283, 1271, 1294, 1374, 1368, 1369 ]
T6 sequence (P08659 whole entry): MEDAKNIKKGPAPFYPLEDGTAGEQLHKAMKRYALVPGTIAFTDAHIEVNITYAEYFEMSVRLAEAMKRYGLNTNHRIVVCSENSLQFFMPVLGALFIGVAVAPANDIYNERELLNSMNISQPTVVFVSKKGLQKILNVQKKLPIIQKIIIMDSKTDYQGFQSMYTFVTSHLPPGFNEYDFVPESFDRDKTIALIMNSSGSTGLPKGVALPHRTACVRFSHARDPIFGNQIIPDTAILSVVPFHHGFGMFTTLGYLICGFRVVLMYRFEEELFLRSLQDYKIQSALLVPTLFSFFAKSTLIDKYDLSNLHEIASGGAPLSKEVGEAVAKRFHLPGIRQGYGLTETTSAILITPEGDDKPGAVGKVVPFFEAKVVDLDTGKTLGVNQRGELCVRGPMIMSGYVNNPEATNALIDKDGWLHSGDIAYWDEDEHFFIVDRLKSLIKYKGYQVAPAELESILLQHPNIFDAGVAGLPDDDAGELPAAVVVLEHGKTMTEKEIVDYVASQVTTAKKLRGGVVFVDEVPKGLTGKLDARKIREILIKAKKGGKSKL

[19] = target: T7, Microphthalmia-associated transcription factor (Homo sapiens, UniProt O75030); experiment: reducers of TRPM1 reporter luminescence, concentration series – cell-based, SK-MEL-5, cherry-picked, set 3, MITF inhibitor project, dose response (AID 493073); format: functional;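 further: SK-MEL-5 melanoma cells with luciferase driven by the MITF target TRPM1 promoter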
T7 sequence (O75030 whole entry): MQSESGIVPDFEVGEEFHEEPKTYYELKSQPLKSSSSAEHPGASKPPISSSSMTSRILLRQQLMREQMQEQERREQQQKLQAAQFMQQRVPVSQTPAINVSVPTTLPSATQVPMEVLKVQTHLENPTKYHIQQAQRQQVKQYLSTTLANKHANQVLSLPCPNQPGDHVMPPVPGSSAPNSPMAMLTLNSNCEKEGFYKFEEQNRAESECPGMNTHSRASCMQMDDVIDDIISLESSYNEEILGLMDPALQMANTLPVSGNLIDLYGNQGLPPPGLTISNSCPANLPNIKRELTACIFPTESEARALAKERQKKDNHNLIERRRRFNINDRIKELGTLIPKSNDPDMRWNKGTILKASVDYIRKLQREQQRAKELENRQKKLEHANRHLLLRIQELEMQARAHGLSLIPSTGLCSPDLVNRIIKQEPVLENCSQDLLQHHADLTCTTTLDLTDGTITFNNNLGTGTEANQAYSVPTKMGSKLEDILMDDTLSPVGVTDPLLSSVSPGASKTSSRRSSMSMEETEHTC

[20] = target: T4, Heat shock factor protein 1; experiment: decrease of HSF1-responsive luciferase luminescence – cell-based, NIH3T3, dose retest, confirmation (AID 2382); format: functional;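 further: NIH3T3 fibroblasts with HSF1-driven luciferase reporter stressed by proteasome inhibitor MG132; luminescence from HSF1-driven luciferase expression after 8 hours of MG132 stress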
[21] = target: T6, Luciferin 4-monooxygenase; experiment: Counter Screen for Luciferase-based Assay Positives. [Related pubchem assays: 620, 618, 411 ]
X-box-binding protein 1 = X-box-binding protein 1 (Homo sapiens, UniProt P17861); format: functional, Cricetulus griseus;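 further: confirmatory dose-response counter-screen serving a CHOP assay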
Sequence of X-box-binding protein 1 (P17861 whole entry): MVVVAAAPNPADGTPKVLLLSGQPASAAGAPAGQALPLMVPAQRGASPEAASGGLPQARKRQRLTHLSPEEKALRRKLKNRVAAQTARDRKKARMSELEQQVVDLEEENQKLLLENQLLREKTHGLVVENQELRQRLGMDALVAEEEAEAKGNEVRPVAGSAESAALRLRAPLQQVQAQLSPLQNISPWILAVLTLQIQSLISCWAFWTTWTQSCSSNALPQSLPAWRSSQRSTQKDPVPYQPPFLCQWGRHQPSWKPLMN

HeLa = experiment: viability loss in HeLa cells – cell-based, 24 h, cherry-picked samples, cytotoxicity control, dose response (AID 504726); format: functional; details: Homo sapiens;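 further: potency for cytotoxicity as loss of luminescence signal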
[22] = target: T8, Eukaryotic translation initiation factor 2-alpha kinase 3 (Homo sapiens, UniProt Q9NZJ5); experiment: Dose response cell-based high-throughput screening assay to measure PERK inhibition. [Related pubchem assays: 1416 ]; format: functional
T8 sequence (Q9NZJ5 whole entry): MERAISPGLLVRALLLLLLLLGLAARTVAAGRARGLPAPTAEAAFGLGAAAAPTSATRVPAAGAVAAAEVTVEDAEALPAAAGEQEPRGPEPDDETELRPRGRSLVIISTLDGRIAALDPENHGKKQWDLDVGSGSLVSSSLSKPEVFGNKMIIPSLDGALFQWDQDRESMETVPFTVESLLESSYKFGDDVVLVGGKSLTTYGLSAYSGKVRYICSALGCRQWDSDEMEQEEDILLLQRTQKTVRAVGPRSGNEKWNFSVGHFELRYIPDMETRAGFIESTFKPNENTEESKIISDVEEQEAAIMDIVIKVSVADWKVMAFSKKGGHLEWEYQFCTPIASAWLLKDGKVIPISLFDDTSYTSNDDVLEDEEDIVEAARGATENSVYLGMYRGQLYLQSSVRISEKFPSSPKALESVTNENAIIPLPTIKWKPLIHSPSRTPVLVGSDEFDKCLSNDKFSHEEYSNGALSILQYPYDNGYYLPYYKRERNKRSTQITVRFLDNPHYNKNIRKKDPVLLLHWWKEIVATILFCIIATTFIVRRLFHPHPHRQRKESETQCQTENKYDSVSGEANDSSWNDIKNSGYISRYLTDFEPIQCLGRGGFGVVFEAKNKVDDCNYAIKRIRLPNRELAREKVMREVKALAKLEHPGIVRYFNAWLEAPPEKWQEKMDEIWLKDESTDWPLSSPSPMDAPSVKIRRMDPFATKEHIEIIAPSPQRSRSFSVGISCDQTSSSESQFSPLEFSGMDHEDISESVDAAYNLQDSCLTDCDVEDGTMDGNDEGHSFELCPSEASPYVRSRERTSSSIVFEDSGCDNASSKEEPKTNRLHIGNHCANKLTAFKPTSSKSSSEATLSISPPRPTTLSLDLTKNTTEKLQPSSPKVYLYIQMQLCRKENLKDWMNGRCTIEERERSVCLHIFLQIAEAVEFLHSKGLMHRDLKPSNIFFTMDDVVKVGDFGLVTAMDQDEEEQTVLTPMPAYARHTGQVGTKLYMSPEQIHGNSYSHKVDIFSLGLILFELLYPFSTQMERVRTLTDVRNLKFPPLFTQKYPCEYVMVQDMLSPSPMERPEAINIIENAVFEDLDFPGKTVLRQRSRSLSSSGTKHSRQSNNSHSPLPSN

[23] = target: T8, Eukaryotic translation initiation factor 2-alpha kinase 3; experiment: Counterscreen assay for PERK inhibitors: Dose response cell-based high throughput screening assay to measure inhibition of PERK at 6 hours. [Related pubchem assays: 1522, 1416 ]; format: functional

T1 sequence (Q92731 whole entry): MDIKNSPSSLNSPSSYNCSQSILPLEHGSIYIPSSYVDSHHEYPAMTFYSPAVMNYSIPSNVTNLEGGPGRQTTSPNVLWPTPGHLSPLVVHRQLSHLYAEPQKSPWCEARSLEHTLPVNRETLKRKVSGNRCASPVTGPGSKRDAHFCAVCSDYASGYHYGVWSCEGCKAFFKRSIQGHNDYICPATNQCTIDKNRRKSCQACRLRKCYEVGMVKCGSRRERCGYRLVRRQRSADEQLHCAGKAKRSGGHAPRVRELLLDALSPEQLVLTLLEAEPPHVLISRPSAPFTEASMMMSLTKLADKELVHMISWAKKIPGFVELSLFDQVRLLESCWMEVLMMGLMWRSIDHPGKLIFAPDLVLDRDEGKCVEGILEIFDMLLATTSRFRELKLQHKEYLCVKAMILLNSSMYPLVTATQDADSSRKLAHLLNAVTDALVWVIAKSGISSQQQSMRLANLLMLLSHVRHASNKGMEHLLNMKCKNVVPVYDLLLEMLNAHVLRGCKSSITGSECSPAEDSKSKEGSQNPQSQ

COc1ccc2c(c1)c(=O)oc1cc(OCC(=O)NC3CCCCC3)ccc12
IC50 (Estrogen receptor beta [1]): > 50 µM (not active)
IC50 (Estrogen receptor): 17.9 µM (active)
IC50 (Estrogen receptor beta [2]): 7.51 µM (active)
IC50 [3]: 6.74 µM (active)
IC50 (Bcl-2-like protein 10): 34.6 µM (active)

O=C(CCl)Nc1nc(-c2ccco2)c(-c2ccco2)s1
IC50 (NS3): 47.8 µM (not active)
IC50 [4]: > 50 µM (not active)
IC50 [5]: > 50 µM (not active)

O=[N+]([O-])c1cc(-c2ncccn2)c([N+](=O)[O-])s1
IC50 (Beta-galactosidase): > 66.6 µM (inactive)
CC50 [6]: 23.2 µM (active)
IC50 [7]: 24 µM (inactive)
EC50 [8]: 6.64 µM (active)
IC50 [9]: 6.92 µM (active)
IC50 (Galanin receptor type 2): 8.96 µM (active)
IC50 [10]: 7.48 µM (active)

Cc1nc(SCC(=O)Nc2ccc3c(c2)OCCO3)c2oc3ccccc3c2n1
EC50 [11]: > 50 µM (not active)

Cc1cccc(NC(=O)CSc2ncnc3c2oc2ccccc23)c1
IC50 [12]: 3.35 µM (active)
IC50 [13]: > 39.8 µM (not active)

Cc1cccc(C)c1NC(=O)C[N+](C)(C)CC(O)COc1cccc2ccccc12 (configuration not stated)
CC50 [14]: 22 µM (active)

CC1CCN(c2nc3ccc(C(=O)O)cc3s2)CC1
IC50 [15]: > 80 µM (inactive)
IC50 (Jurkat): 1.82 µM (active)
EC50 (HT-1080): > 50 µM (not active)
EC50 (HEK293 [16]): 12.5 µM (not active)
EC50 (HEK293 [17]): 13.1 µM (inactive)
EC50 [18]: > 8 µM (not active)
AC50 [19]: 1.25 µM (active)
EC50 [20]: 0.268 µM (active)
EC50 [21]: 7.86 µM (active)

Cc1cccc(/C=C/c2nc(O)c3ccccc3n2)c1
Absolute IC50 (XBP1) (X-box-binding protein 1): 10 µM

COc1cccc(NC(=O)N(CCN(C)C)C(C)c2cccnc2)c1 (configuration not stated)
AC50 (HeLa): 123 µM (active)

O=C(N/N=C/c1ccncc1)c1ccccc1
EC50 [22]: > 55.7 µM (not active)
EC50 [23]: > 55.7 µM (not active)
